Measured values published in patent publication US12350250B2, “Aggrelytes for treating ocular conditions” (The Regents of the University of Colorado, a Body Corporate, priority 2022, dated 2025).

Tests used:
human lenses [1] = experiment: Stiffness of ex vivo human lenses (Example 22); details: 250 μM, 48 hours
Description: To test the effects of Aggrelyte-2 and Aggrelyte-2A on human lenses (age: 47-67 years), lenses were incubated in media containing freshly dissolved aggrelyte (250 μM) for 48 hours, with aggrelyte replacement after 24 hours. One lens from each donor pair was treated with aggrelyte, while the other was used as the control. After incubation, lens stiffness was measured, as described above in Example 20.

mouse lenses [2] = experiment: Acetylated proteins in ex vivo treated mouse lenses (Western blot, Example 19); details: 1 mM, 24 hours
Description: The lenses from Example 18 were homogenized using N2-bubbled 50 mM phosphate buffer, pH 7.4 (0.4 mL per lens), in a hand-held motorized homogenizer. The homogenate was centrifuged at 20,000×g for 20 minutes at 4° C. The resulting supernatant was collected, and its protein content was measured using BCA Protein Assay Kit using BSA as the standard. The soluble protein was subjected to 12% SDS-PAGE under denaturing conditions and the proteins were electrophoretically transferred to a nitrocellulose membrane and blocked with 5% nonfat dry milk. The membrane was then incubated with a monoclonal antibody against N-acetyllysine (AcK antibody @ 1:5,000 dilution; Cell Signaling Technology Catalog #9681S) for 16 hours, followed by horseradish peroxidase (HRP)-conjugated goat anti-mouse IgG (1:5,000 dilution; Cell Signaling Technology Catalog #7076S) for 1 hour. Chemiluminescence was detected using the Enhanced Chemiluminescence Detection Kit. The membrane was stained with Ponceau-S to visualize the proteins and normalize acetyllysine (AcK)-bearing protein to total protein load.

human lenses [3] = experiment: Acetylated proteins in ex vivo treated human lenses (Example 23); details: 250 μM, 48 hours
Description: Each lens from Example 21 was decapsulated and homogenized in N2-bubbled 50 mM phosphate buffer, pH 7.4 (1.5 mL per lens), in a hand-held glass homogenizer. The sample was processed and evaluated for protein content as described in Example 19.

mouse lenses [4] = experiment: Stiffness of ex vivo mouse lenses (Example 18); set-up: species or system mouse (C57BL/6J); details: 1 mM, 24 hours, ex vivo mouse lenses (3-6 months old); not significant
Description: In this example, the lenses were dissected from the eyes of mice (C57BL/6J, 3-6 months old, Jackson Laboratories, Stock No. 000664) by a posterior approach and incubated without (“Control”) or with Aggrelyte-2 or Aggrelyte-2A (1 mM) for 24 hours in serum-free and phenol-red-free MEM (297 mOsm) at 37° C. Lens stiffness was measured as in Example 10, except that the load was applied at 50 mg increments.

mouse lenses [5] = details: 40 mM topical twice daily for four weeks, mice
Description: A 40 mM solution of Aggrelyte-2A was prepared in a liquid formulation that consisted of benzalkonium chloride (0.001%), NaH2PO4·H2O (0.269%), Na2HPO4 (0.433%), hypromellose (0.2%), and NaCl (0.5%). Aggrelyte-2A in the formulation (5 μl) was applied to the right eye twice daily (8 AM and 4 PM) to unanesthetized animals for four weeks. The left eye received only the formulation (5 μl) (“Vehicle” or “Control”). After treatment, the animals were euthanized by CO2 asphyxiation. The eyes were enucleated, and the lenses were removed immediately by a posterior approach and placed in fresh PBS. The stiffness of the lenses was measured using a computer-controlled lens squeezer. The AcK-bearing protein levels of the lenses were measured by Western blotting. The protein-thiol content of the lenses was measured using a Thiol Quantification Assay Kit from Abcam, using reduced GSH as the standard.

αA-crystallin (αAC) = biological target: T1, αA-crystallin (αAC) (Homo sapiens, UniProt P02489); experiment: Relative protein acetylation capability on recombinant αAC; assay type: biochemical; details: 500 μM acetylating agent, αAC 3 mg/mL, 24 hours, 37° C.
T1 sequence (P02489 1-173): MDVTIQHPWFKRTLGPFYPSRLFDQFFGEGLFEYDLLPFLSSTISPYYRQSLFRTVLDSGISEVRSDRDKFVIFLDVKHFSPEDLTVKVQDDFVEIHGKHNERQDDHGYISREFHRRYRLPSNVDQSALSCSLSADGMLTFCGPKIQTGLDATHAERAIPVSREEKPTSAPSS
Description: The relative ability of Aggrelyte-2 to acetylate lysine residues in proteins was investigated using αA-crystallin (αAC). Human recombinant αAC (3 mg/mL PBS) was incubated in 50 mM sodium phosphate buffer, pH 7.4, for 24 hours at 37° C. while shaking without or with 500 μM acetylating agent (Aggrelyte-2, acetyl-CoA, acetic anhydride, or aspirin), dialyzed against PBS for 24 hours at 4° C.

WI proteins (human lens) = experiment: Relationship between protein acetylation and solubility: WI proteins treated with acetic anhydride or Aggrelyte-2; assay type: biochemical
From the text: To determine whether protein acetylation alone contributed to lens protein solubility, the soluble protein levels in WI proteins treated with acetic anhydride and Aggrelyte-2 were compared.

COC(=O)[C@H](CSC(C)=O)NC(=O)CC(C)(C)C [Aggrelyte-2A, methyl S-acetyl-N-(3,3,-dimethylbutanoyl)-L-cysteinate]
reduction of lens stiffness compared to vehicle-treated lenses (human lenses [1]; ex vivo human lenses (47-67 years)): approximately 15%
significance of stiffness reduction at 2000-mg load (human lenses [1]; ex vivo human lenses, 2000-mg load (p<0.05)): significant
density of acetyl-bearing proteins, % increase compared to Aggrelyte-2 (mouse lenses [2]): at least 50%
density of acetyl-bearing proteins, fold increase compared to untreated control lenses (mouse lenses [2]): 5 fold
increase in density of acetyl-bearing proteins compared to control lenses (human lenses [3]): approximately 5%
reduction of lens stiffness (mouse lenses [4]): approximately 20%
increase in protein thiol content compared to vehicle-treated lenses (mouse lenses [5]): approximately 8%
reduction of lens stiffness compared to vehicle-treated lenses (mouse lenses [5]; 200-mg load): approximately 12%
increase in density of AcK-bearing proteins compared to vehicle-treated lenses (mouse lenses [5]; Western blot): approximately 10%
reduction in stiffness at 400- and 500-mg loads (mouse lenses [5]; relative to 200-mg load result): similar

CC(=O)OC(C)=O [acetic anhydride]
acetylating potency, fold higher than Aggrelyte-2 (αA-crystallin (αAC)): ~21 fold
rank order of acetylating agents (αA-crystallin (αAC)): most potent acetylating agent
acetylation of WI proteins, comparison (WI proteins (human lens)): better acetylating agent than Aggrelyte-2

CC(=O)SCCNC(=O)CCNC(=O)[C@H](O)C(C)(C)COP(=O)(O)OP(=O)(O)OC[C@H]1O[C@@H](n2cnc3c(N)ncnc32)[C@H](O)[C@@H]1OP(=O)(O)O [acetyl-CoA]
rank order of acetylating agents (αA-crystallin (αAC)): followed by Aggrelyte-2, aspirin, and acetyl-CoA

CC(=O)Oc1ccccc1C(=O)O [aspirin]
rank order of acetylating agents (αA-crystallin (αAC)): followed by Aggrelyte-2, aspirin, and acetyl-CoA
